Source: paper PMC10052652 (Molecules, 2023)
Read-outs that look alike come from different tables or passages of the source.

Experiments:
[1] = DPPH radical scavenging assay
Experimental: DPPH• (1-1-diphenyl 2-picryl hydrazyl) assay
This method is based on the spectrophotometric assay using the stable radical, DPPH•, as a reagent. First, 20 µL of each sample (4 mg/mL) was mixed with 180 µL of 0.1 mM DPPH• in methanol, in plates, after an incubation of 25 min in the dark. Absorbance was measured at 517 nm. Ascorbic acid was used as the reference compound. The radical-scavenging activities of molecules, expressed as a percentage inhibition of DPPH•, were calculated according to the following formula: Inhibition (%) = [(A control − A sample)/A control] × 100 where A is the absorbance determined at 517 nm. The absorbance of the solvent and DPPH• radical without the molecule was measured as the control.

[2] = ABTS radical cation scavenging assay; settings: for ABTS Assay %: at 100 µM
Experimental: ABTS (2,2′-azinobis-3-ethylbenzothiazoline-6-sulfonate) assay
The radical scavenging capacity of antioxidants for the ABTS radical cation was evaluated following this method: ABTS was prepared by adding 7 mM solution of ABTS at pH 7.4 (5 mM NaH2PO4, 5 mM Na2HPO4, and 154 mM NaCl) with 2.5 mM potassium persulfate. The mixture was stored at room temperature for 16 h in the dark before use and prepared […]. Once diluted with persulfate buffer, the absorbance of the mixture yielded an absorbance value of 0.70 ± 0.05 units at 734 nm. Then, 20 µL of each tested sample was mixed with fresh ABTS solution (180 µL), then the absorbance was measured 6 min after the initial mixing. Ascorbic acid was used as a standard. The capacity of free radical scavenging was expressed as a percentage of the inhibition values. The percentage of inhibition is calculated using the same expression employed in the DPPH assay.

[3] = biological target: T1, acetylcholinesterase (AChE) (Homo sapiens, UniProt P22303); experiment: biochemical
Experimental: The enzymatic activity was assessed via a modified colorimetric Ellman′s method. First, 50 µL of Tris-HCl buffer (pH 8), 25µL of a buffer solution of the sample (50 µg/mL), and 25 µL of an acetylcholinesterase (AChE) enzyme solution containing 2.8 U/mL were mixed. A reaction was then initiated via the addition of 125 µL of 3 mM […]. After incubation for 15 min at 25 °C, 25 µL of a solution of iodide acetylthiocholine15 mM was added to a 96-well microplate. […] Inhibition (%) was calculated in the following way: Inhibition (%) = [(A control − A sample)/A control] × 100, where (A sample) is the absorbance of the molecule containing the reaction and (A control) is the absorbance of the reaction control. Tests were carried out in triplicate.

[4] = biological target: T2, superoxide dismutase (SOD) (Homo sapiens, UniProt P00441); experiment: biochemical; settings: read-out: Anti SOD IC50
Experimental: Pyrogallol auto-oxidation due to oxygen in the air can be inhibited by an enzyme that is naturally present in the body: superoxide dismutase (SOD). Furthermore, variations in the pyrogallol auto-oxidation rate in the presence of SOD were evaluated. Tests were carried out in triplicate. The objective was to find an inhibitor of the auto-oxidation of pyrogallol in the presence of a SOD enzyme solution. Samples were tested at a concentration of 50 µg/mL, followed by incubation for 4 min at 25 °C. […] The self-oxidation of pyrogallol was evaluated in the absence of the enzyme. For this, 30 µL of pyrogallol was added to 120 µL of tris buffer (in place of the SOD) (pH 8.5), then followed by the same steps of incubating a positive control (without the molecule); this was performed in the presence of 5% of DMSO to evaluate the percentage of SOD inhibition activity on the auto-oxidation of pyrogallol.

xanthine oxidase (XOD) [5] = biological target: T3, xanthine oxidase (XOD) (Homo sapiens, UniProt P47989); experiment: biochemical; settings: read-out: Anti XOD IC50
Experimental: Anti-xanthine oxidase activity was assayed spectrophotometrically under aerobic conditions. First, 50 µL (50 µg/mL) of samples were added to 60 µL of phosphate buffer (pH 7.5) and 30 µL of xanthine oxidase enzyme solution (0.01 units/mL in phosphate buffer; pH 7.5). After pre-incubation at 25 °C for 15 min, the reaction was initiated by the addition of 60 µL of xanthine substrate solution (prepared in the same buffer). The assay mixture was incubated at 25 °C for 5 min. […] The assay was performed in triplicate. […] Tests were carried out in triplicate.

HCT116 cells = experiment: Cytotoxic activity, MTT assay, HCT116; format: cell-based, human; settings: Homo sapiens, HCT-116, 72 h, read-out: IC50 HCT116, MTT, 72 h
Experimental: (§1) The cancer cell lines used in this study were HCT116 (colorectal carcinoma), IGROV1 (ovarian cancer), OVCAR3 (ovarian cancer), and MCF7 (mammary gland/breast cancer). […] Cell lines were maintained in culture and were incubated at 37 °C in an incubator with 5% CO2 in a humidified atmosphere. All tests were established at 80% of confluence, and viability was estimated with a trypan blue exclusion assay.
(§2) The cytotoxic activities of molecules against cancer cell lines were evaluated using an MTT assay. The MTT colorimetric assay was performed using 96-well plates. Cells were seeded in a 96-well plate, at a concentration of 10 × 10^3 cells/well for HCT116 and 12 × 10^3 cells/well for MCF7, IGROV1, and OVAR. Adherent cells were dispatched and incubated at 37 °C overnight in a 5% CO2-enriched atmosphere. […] After that, the medium was removed, and cells were treated with 50 µL of 3-(4,5-dimethylthazolk-2-yl)-2,5-diphenyl tetrazolium bromide (MTT) solution (3 mg/mL in PBS) at 37 °C for 20 to 40 min. To dissolve the […], we added 80 µL of 100% DMSO. Optical density was measured at 540 nm. All tests were established in triplicate. […]

MCF7 cells = experiment: Cytotoxic activity, MTT assay, MCF7; format: cell-based, human
Experimental: Optical density was measured at 540 nm. All tests were established in triplicate.

OVCAR-3 cells = experiment: Cytotoxic activity, MTT assay, OVCAR-3; format: cell-based; settings: Homo sapiens, OVCAR-3, 72 h, read-out: IC50 OVCAR-3
Experimental: as §1, §2

SKOV-3 cells = experiment: Cytotoxic activity, MTT assay, SKOV-3; format: cell-based, human
[6] = biological target: T1, acetylcholinesterase (AChE); format: biochemical; settings: at 100 µM
[7] = biological target: T2, superoxide dismutase (SOD); format: biochemical; settings: at 100 µM
xanthine oxidase (XOD) [8] = biological target: T3, xanthine oxidase (XOD); format: biochemical; settings: at 100 µM
α-amylase = biological target: T4, α-amylase (Homo sapiens, UniProt P04746); experiment: Anti-α-amylase activity (starch/DNS); settings: for Anti α-Amylase %: at 100 µM
T4 sequence (P04746 16-511): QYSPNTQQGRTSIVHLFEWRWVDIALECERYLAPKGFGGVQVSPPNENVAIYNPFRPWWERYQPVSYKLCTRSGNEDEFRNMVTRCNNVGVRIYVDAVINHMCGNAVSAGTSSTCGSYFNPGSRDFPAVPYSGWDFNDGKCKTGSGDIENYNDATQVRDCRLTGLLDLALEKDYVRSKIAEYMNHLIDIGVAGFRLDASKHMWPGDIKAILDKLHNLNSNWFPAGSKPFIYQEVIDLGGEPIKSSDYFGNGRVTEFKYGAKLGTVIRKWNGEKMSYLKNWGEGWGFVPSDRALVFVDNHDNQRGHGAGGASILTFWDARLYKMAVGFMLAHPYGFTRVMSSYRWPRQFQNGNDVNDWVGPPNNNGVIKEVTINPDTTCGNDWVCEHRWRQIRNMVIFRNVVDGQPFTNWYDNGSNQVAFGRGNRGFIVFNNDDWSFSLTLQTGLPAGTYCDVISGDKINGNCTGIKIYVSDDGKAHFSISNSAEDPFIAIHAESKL
Experimental: The α-amylase inhibitory activity (%) value was defined as the percentage decrease in the maltose production rate over the control. […] After 15 min, this mixture was removed from the water bath and diluted with 900 µL of distilled water. The anti-α-amylase activity was determined by measuring the absorbance at 540 nm. Blank incubations were determined as the absorbance produced by samples where the enzyme was replaced with a buffer solution. […] The IC50 values were calculated from the mean values of the percentage of α--amylase inhibition data, determined in triplicate.

[9] = Homo sapiens, SK-OV-3, 72 h, read-out: IC50 SKOV-3, MTT, 72 h

T3 sequence (P47989 whole entry, species assumed): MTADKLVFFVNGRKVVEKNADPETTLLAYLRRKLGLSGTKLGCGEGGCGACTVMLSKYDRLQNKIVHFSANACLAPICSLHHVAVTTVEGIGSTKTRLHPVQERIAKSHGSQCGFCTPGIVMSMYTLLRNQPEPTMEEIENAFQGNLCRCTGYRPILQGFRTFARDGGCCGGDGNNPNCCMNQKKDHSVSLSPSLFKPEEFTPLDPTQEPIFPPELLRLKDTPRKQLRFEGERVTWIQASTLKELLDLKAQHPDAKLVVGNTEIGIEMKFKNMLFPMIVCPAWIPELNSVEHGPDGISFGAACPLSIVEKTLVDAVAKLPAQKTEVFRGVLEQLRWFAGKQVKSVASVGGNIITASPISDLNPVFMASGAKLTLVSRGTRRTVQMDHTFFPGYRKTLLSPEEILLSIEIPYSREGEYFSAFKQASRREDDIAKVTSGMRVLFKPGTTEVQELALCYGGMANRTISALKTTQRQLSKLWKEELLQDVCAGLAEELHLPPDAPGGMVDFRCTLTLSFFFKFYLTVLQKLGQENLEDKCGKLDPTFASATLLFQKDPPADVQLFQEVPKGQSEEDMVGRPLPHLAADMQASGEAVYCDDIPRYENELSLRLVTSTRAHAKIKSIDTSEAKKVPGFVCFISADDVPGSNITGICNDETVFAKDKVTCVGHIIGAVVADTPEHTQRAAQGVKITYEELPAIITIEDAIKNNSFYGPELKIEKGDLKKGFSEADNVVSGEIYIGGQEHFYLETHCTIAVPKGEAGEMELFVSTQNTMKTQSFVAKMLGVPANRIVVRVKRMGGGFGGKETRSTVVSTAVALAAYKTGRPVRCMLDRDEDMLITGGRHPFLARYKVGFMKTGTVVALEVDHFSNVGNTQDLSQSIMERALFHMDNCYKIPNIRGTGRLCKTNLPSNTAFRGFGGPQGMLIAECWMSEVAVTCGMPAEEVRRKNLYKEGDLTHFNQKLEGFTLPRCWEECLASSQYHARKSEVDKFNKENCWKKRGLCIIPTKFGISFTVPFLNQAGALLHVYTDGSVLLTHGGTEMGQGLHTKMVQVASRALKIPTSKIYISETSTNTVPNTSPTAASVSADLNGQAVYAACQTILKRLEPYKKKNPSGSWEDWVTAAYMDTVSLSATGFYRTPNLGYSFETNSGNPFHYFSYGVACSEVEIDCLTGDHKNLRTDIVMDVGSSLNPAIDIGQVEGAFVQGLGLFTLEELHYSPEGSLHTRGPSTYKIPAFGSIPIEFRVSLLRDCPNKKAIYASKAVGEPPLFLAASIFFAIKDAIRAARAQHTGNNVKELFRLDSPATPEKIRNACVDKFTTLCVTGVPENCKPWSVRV
T2 sequence (P00441 whole entry): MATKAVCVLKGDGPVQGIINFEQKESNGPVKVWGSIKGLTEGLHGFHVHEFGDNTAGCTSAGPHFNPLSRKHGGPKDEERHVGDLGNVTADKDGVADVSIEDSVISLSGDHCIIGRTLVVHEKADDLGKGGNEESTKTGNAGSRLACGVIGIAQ
T1 sequence (P22303 32-614, species assumed): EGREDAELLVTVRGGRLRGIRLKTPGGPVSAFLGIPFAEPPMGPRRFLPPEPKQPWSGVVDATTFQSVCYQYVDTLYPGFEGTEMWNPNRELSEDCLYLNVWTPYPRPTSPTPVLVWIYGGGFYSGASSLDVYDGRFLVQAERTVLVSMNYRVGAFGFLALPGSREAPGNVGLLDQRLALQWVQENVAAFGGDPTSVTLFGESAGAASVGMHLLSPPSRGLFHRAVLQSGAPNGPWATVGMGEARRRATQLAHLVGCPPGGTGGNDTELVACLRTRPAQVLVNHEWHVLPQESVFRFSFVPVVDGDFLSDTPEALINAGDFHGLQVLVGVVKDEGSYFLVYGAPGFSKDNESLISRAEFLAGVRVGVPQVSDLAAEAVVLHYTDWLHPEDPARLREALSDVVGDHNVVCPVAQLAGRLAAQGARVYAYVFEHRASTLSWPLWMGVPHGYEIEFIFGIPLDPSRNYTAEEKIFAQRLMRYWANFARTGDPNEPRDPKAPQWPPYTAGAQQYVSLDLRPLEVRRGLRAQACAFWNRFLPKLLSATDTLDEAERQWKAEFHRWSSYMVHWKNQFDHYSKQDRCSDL

| SMILES | IC50 [1] | IC50 [2] | ABTS Assay % [2] | IC50 ([3]; read-out: Anti ACHE IC50) | IC50 [4] | IC50 (xanthine oxidase (XOD) [5]) | IC50 (HCT116 cells) | IC50 (MCF7 cells; Homo sapiens, MCF7, 72 h) | IC50 (OVCAR-3 cells) | IC50 (SKOV-3 cells; [9]) | Anti ACHE % [6] | Anti SOD % [7] | Anti XOD % (xanthine oxidase (XOD) [8]) | IC50 (α-amylase) | Anti α-Amylase % (α-amylase) | IC50 (MCF7 cells; 72 h) | IC50 (SKOV-3 cells; read-out: IC50 SKOV-3, MTT, 72 h) | IC50 [3] |
| --- | --- | --- | --- | --- | --- | --- | --- | --- | --- | --- | --- | --- | --- | --- | --- | --- | --- | --- |
| O=c1cc(-c2cccc(O)c2)oc2c1ccc1ccccc12 [Molecule M10, 3′-hydroxy-a-naphthoflavone] | > 100 µM | > 100 µM | 11.0 ± 1.0% | > 50 µM | > 100 µM | > 50 µM | > 50 µM | > 50 µM | > 50 µM | > 50 µM | 54.7 ± 1.9% | 39.4 ± 1.9% | 58.8 ± 0.3% | 2.3 ± 0.1 µM | 69.4 ± 1.6% | – | – | – |
| O=C1O[C@H]([C@@H](O)CO)C(O)=C1O [Vitamin C, Ascorbic acid, reference compound] | 2.3 ± 0.2 µM | 2.2 ± 0.2 µM | – | – | – | – | – | – | – | – | – | – | – | – | – | – | – | – |
| Cc1ccc(-c2cc(=O)c3cc(O)ccc3o2)cc1 [Molecule M17, 6-hydroxy-4′-methylflavone] | > 100 µM | > 50 µM | – | > 50 µM | > 50 µM | 0.8 ± 0.1 µM | 40.4 ± 1.2 µM | > 50 µM | > 50 µM | 43.8 ± 0.9 µM | 50.8 ± 4.1% | 80.9 ± 0.2% | 67.7 ± 2.1% | > 100 µM | – | – | – | – |
| O=c1cc(-c2cccc(O)c2)oc2cccc(O)c12 [Molecule M14, 5,3′-dihydroxyflavone] | > 100 µM | > 100 µM | 16.9 ± 0.3% | > 50 µM | > 100 µM | 2 ± 0.1 µM | – | > 100 µM | > 50 µM | > 100 µM | 55.0 ± 1.9% | 5.7 ± 2.5% | 71.3 ± 4.7% | 6.7 ± 0.9 µM | 109.6 ± 1.7% | > 50 µM | > 50 µM | – |
| CC1OC(OCC2OC(Oc3c(-c4ccc(OCCO)c(OCCO)c4)oc4cc(OCCO)cc(O)c4c3=O)C(O)C(O)C2O)C(O)C(O)C1O (centres unmarked) [Molecule M6, trihydroxyethylrutin] | > 100 µM | 24.5 ± 0.1 µM | – | – | > 50 µM | > 100 µM | > 50 µM | > 50 µM | > 50 µM | > 50 µM | 33.7 ± 3.7% | 53.7 ± 2.1% | – | > 100 µM | 49.4 ± 5.1% | – | – | > 100 µM |
